Laboratory results: article PMC8406801, “Naringenin Inhibits Platelet Activation and Arterial Thrombosis Through Inhibition of Phosphoinositide 3-Kinase and Cyclic Nucleotide Signaling” (Frontiers in Pharmacology, 2021)
Where “and” joins values, the source holds several entries; their conditions need not be identical. Equal entries are not always repeated.

Experiments:
[1] = test system: carotid arterial thrombus; experiment: FeCl3-induced carotid arterial thrombus model in rats; format: in vivo, rat; details: for Occlusion time: 10% FeCl3, single animals, no occlusion within 20 min recorded as 20 min
Method: To determine the effects of naringenin on thrombogenesis, a FeCl3-induced carotid arterial thrombus model was performed as reported previously with some modifications ([Eckly et al., 2011]). […] The rats were anaesthetized using 1% pentobarbital sodium salt and fixed supinely after the last administration. The left carotid artery was exposed and thrombosis was induced by applying a Whatman filter paper (5 mm × 1 mm) saturated with 10% (w/v) FeCl3 on the top of the left carotid artery for 5 min. […] Time to occlusion of the carotid artery was defined as a blood flow of 0 ml/min for 3 min. […] At the end of the experiment, the left carotid artery was dissected. A haematoxylin and eosin stain was performed on the artery.

[2] = test system: ERK1/2 phosphorylation; experiment: Ex vivo immunoblotting of phospho-ERK1/2 in ADP-stimulated PRP of treated rats; set-up: species or system rat; details: for p-ERK1/2 / t-ERK (Fold to Control) / p-ERK1/2 / t-ERK (raw data): ex vivo, Figure 8E
Method: Male SD rats were randomly divided into 5 groups with 6 rats in each group. […] Sixty minutes after the last sample treatment, blood was drawn from the abdominal aorta of rats into the siliconized vacutainers containing 1:9 (v/v) 3.8% sodium citrate. The collected blood was centrifuged at 100 × g for 10 min at room temperature to obtain PRP. […] The platelet counts of PRP were adjusted to 4×10^8 cells/mL using PPP. PRP was incubated for 5 min at 37°C and then stimulated by ADP (5 μM). The maximum platelet aggregation rate was determined as mentioned above.
(§1) For in vitro platelet aggregation, aliquots of washed platelets were preincubated with vehicle or various concentrations of naringenin for 5 min and stimulated with ADP (10 μmol/L) under stirring at 37°C for 5 min. For ex vivo platelet aggregation, PRP was incubated at 37°C for 5 min and stimulated with ADP (5 μmol/L) under stirring at 37 °C. The platelet aggregation was terminated by adding ethylenediaminetetraacetic acid (EDTA; 10 mM). Total protein was prepared using RIPA lysis buffer and protein content was determined by bicinchoninic acid (BCA) protein assay kit. Equal amounts of platelet proteins (30 μg) were separated on 10% SDS polyacrylamide gel electrophoresis (SDS-PAGE) and then transferred to poly vinylidene difluoride (PVDF) membranes and subjected to western blot. Blots were blocked with TBS-Tween 20 containing 5% BSA and probed with primary antibodies diluted in blocking solution at 4°C overnight followed by incubation with the corresponding HRP secondary antibodies. The protein bands were visualized using enhanced chemiluminescence (ECL).
Blood was collected and PRP was obtained after the last treatment. Platelet aggregation was induced by ADP (5 μmol/L) (A). Data are expressed as means ± SD (n = 6). After ADP stimulation, platelet proteins were then extracted and analyzed by immunoblotting using PI3Kp110β antibody (B) and phospho-specific antibodies such as Akt^Ser473 (C), Akt^Thr308 (D) and ERK1/2^Thr202/Tyr204 (E). Total level of GAPDH was measured on each sample as a loading control. The blots shown are representative of three separate experiments. The relative protein expression levels were quantified by ImageJ 1.47v software. The level of relative protein expression obtained with vehicle control was taken as 1. R represents the level of relative protein expression in resting platelets. Data are expressed as means ± SD (n = 3). *p < 0.05, **p < 0.01, ***p < 0.001 compared with the vehicle control group (Con).
To further investigate the antiplatelet mechanisms of naringenin ex vivo, several signaling molecules such as PI3Kp110β, Akt and ERK were detected. After oral administration of naringenin (200, 400, and 800 mg/kg) to rats for 7 days, rat PRP was prepared and stimulated by ADP (5 μmol/L), and platelets were lysed to determine protein phosphorylation levels using western blot.

[3] = test system: Akt Ser473 phosphorylation; experiment: Immunoblotting of phospho-Akt (Ser473) in ADP-stimulated washed platelets; format: cell-based, rat; details: single replicates; for p-Akt Ser473 / t-Akt: raw data
Method: as §1
FIGURE 4 Naringenin inhibits PI3K-mediated signaling in ADP-induced platelets. Washed rat platelets were preincubated without or with naringenin at 37°C for 5 min, and then stimulated with ADP (10 μmol/L) under stirring for 5 min. Platelet proteins were then extracted and analyzed by immunoblotting using PI3Kp110β antibody (A) and phospho-specific antibodies such as Akt^Ser473 (B), Akt^Thr308 (C), ERK1/2^Thr202/Tyr204 (D) and GSK3β^Ser9 (E). Total level of GAPDH was measured on each sample as a loading control. The blots shown are representative of three separate experiments. The relative protein expression levels were quantified by ImageJ 1.47v software. The level of relative protein expression obtained with vehicle control (0 μM) was taken as 1. R represents the level of relative protein expression in resting platelets. Data are expressed as means ± SD (n = 3). *p < 0.05, **p < 0.01, ***p < 0.001 compared with the vehicle control group.
FIGURE 5 Effects of naringenin combined with PI3K pan inhibitor LY294002 on platelet aggregation and Akt phosphorylation. Washed rat platelets were preincubated with naringenin (200 μmol/L) alone, the PI3K pan inhibitor LY294002 (5 μmol/L) alone or both for 5 min prior to ADP (10 μmol/L) activation. After stimulation with ADP, platelet aggregation was quantified and expressed as a percentage (A). Data are expressed as means ± SD (n = 6). ***p < 0.001 compared with the ADP-treated group, ^### p < 0.001 compared with naringenin alone or LY294002 alone. Platelet proteins were then extracted and specific antibodies were used to measure the level of total and phosphorylated Akt (B). The blots shown are representative of three separate experiments. The relative protein expression levels were quantified by ImageJ 1.47v software. The level of phosphorylation obtained in the ADP-treated group was taken as 1. Data are expressed as means ± SD (n = 3). ***p < 0.001 compared with the ADP-treated group, ^### p < 0.001 compared with naringenin alone or LY294002 alone.

[4] = Figure 5B: ADP 10 μM, naringenin 200 μM alone

SMILES: O=C1C[C@@H](c2ccc(O)cc2)Oc2cc(O)cc(O)c21 [Naringenin]
- H&E-stained carotid artery: thrombus formation and vascular endothelial injury ([1]; naringenin pretreatment, 10% FeCl3): diminish thrombus formation and protect against vascular endothelial injury
- Occlusion time ([1]; oral 200 mg/kg for 7 days, 200 mg/kg): 7.5 min and 11.3 min and 8.5 min and 8.0 min and 9.5 min and 10.3 min
- Occlusion time ([1]; oral 400 mg/kg for 7 days, 400 mg/kg): 11.0 min and 10.5 min and 13.0 min and 14.0 min and 15.0 min
- 10% FeCl3-thrombus formation (time to vessel occlusion) ([1]; oral 800 mg/kg for 7 days): markedly attenuated
- Occlusion time ([1]; oral 800 mg/kg for 7 days, 800 mg/kg): 13.3 min and 15.3 min and 20.0 min and 18.0 min
- 10% FeCl3-thrombus formation (time to vessel occlusion) ([1]; oral 200 and 400 mg/kg for 7 days): less inhibition
- p-ERK1/2 / t-ERK (Fold to Control) ([2]; naringenin 200mg/kg): 0.4913 and 0.9007 and 0.8159
- p-ERK1/2 / t-ERK (raw data) ([2]; naringenin 200mg/kg): 0.4317 and 0.7915 and 0.7170
- p-ERK1/2 / t-ERK (Fold to Control) ([2]; naringenin 800mg/kg): 0.4112 and 0.5367 and 0.7060
- p-ERK1/2 / t-ERK (raw data) ([2]; naringenin 800mg/kg): 0.3613 and 0.4716 and 0.6204
- phosphorylation of ERK in rat PRP ex vivo ([2]; rats, oral 200, 400, and 800 mg/kg for 7 days, ADP 5 μmol/L): significantly suppressed
- p-Akt Ser473 / t-Akt ([3]; ADP 10 μmol/L, 100 μM): 0.1822 and 0.1825 and 0.1171
- p-Akt Ser473 / t-Akt (Fold to ADP only) ([3]; ADP 10 μmol/L, 100 μM): 0.4309 Fold to ADP only and 0.4315 Fold to ADP only and 0.2769 Fold to ADP only
- p-Akt Ser473 / t-Akt ([3]; ADP 10 μmol/L, 200 μM): 0.1611 and 0.1671 and 0.0697
- p-Akt Ser473 / t-Akt (Fold to ADP only) ([3]; ADP 10 μmol/L, 200 μM): 0.3810 Fold to ADP only and 0.3953 Fold to ADP only and 0.1648 Fold to ADP only
- p-Akt Ser473 / t-Akt ([3]; ADP 10 μmol/L, 400 μM): 0.1761 and 0.0969 and 0.0748
- p-Akt Ser473 / t-Akt (Fold to ADP only) ([3]; ADP 10 μmol/L, 400 μM): 0.4165 Fold to ADP only and 0.2292 Fold to ADP only and 0.1768 Fold to ADP only
- p-Akt Ser473 / t-Akt ([3]; ADP 10 μmol/L, 800 μM): 0.0725 and 0.0226 and 0.0288
- p-Akt Ser473 / t-Akt (Fold to ADP only) ([3]; ADP 10 μmol/L, 800 μM): 0.1714 Fold to ADP only and 0.0534 Fold to ADP only and 0.0681 Fold to ADP only
- p-Akt Ser473 / t-Akt [3, 4]: 0.5270 and 0.4157 and 0.3312
- p-Akt Ser473 / t-Akt (Fold to ADP only) [3, 4]: 0.6055 Fold to ADP only and 0.4777 Fold to ADP only and 0.3805 Fold to ADP only
